This experiment concerns the target T1, Ornithine decarboxylase (Homo sapiens, UniProt P11926).
T1 sequence (P11926 whole entry): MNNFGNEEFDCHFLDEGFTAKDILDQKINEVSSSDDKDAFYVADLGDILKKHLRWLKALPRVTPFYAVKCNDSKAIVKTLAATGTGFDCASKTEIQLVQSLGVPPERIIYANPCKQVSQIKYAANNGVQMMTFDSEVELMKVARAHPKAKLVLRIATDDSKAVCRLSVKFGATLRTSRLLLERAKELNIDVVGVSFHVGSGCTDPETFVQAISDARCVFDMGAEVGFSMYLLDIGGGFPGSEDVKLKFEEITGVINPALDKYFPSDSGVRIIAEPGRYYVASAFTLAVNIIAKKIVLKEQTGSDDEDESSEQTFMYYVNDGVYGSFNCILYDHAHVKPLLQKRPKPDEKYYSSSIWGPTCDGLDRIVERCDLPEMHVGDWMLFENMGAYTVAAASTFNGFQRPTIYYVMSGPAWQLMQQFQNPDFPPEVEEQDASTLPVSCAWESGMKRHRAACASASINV
As to the kind of experiment: Inhibition of TPA-induced ornithine decarboxylase expressed in T24 cells.

The record followed here is BindingDB's records for doi:10.1021/np0604580 (University of California - San Diego, 2007).

`C/C(=C/C=C/[C@H](C)[C@H](O)[C@@H](C)[C@@H](O)[C@@H](C)[C@@H]1O[C@@]2(C)CC[C@@H](O2)[C@H]1C)C(N)=O` [SALINIKETAL A] returned an IC50 of 5.05 µM.

`C[C@H]([C@H](O)[C@H](C)[C@@H](O)[C@@H](C)/C=C/C=C(/CO)C(N)=O)[C@@H]1O[C@@]2(C)CC[C@@H](O2)[C@H]1C` [SALINIKETAL B] gave an IC50 of 18.9 µM.
